# Experimental data reported in US9650388B2, “Form 2 crystalline polymorph of a salt of N-[1-6-(ethynyl-3-oxo-hexahydro-furo[3,2-B]pyrrole-4-carbonyl)-3-methyl-butyl]-4-[5-fluoro-2-(4-methyl-piperazinyl) thiazol-4-yl]-benzamide useful as cysteine protease inhibitor” (MEDIVIR AB, priority 2013, dated 2017).
# Key:
# Assay type in all cases: physicochemical
# [1] = Thermal analysis by DSC and TGA; details: 10° C./min; for temperature of mass loss(es) on heating: TGA, Form 1: two distinct mass losses (FIG. 13), free base: a mass loss, probably water (FIG. 14)
# Method: Differential Scanning Calorimetry (DSC)
# DSC data were collected on a Mettler DSC 823e equipped with a 34 position auto-sampler. The instrument was calibrated for energy and temperature using certified indium. Typically 0.5-3 mg of each sample, in a pin-holed aluminium pan, was heated at 10° C./min from 25° C. to 300° C. A nitrogen purge at 50 ml/min was maintained over the sample.
# Thermogravimetric Analysis (TGA)
# TGA data were collected on a Mettler TGA/SDTA 851e equipped with a 34 position auto-sampler. The instrument was temperature calibrated using certified indium. Typically 5-30 mg of each sample was loaded onto a pre-weighed aluminium crucible and was heated at 10° C./min from ambient temperature to 400° C. A nitrogen purge at 50 ml/min was maintained over the sample.
# Thermal analysis of Form 2 crystalline polymorph (a sample obtained using the method in Example 6) by DSC and TGA was undertaken using the method describe in General Methods. […]
# [2] = Thermodynamic aqueous solubility
# Method: Thermodynamic Aqueous Solubility
# The suspension was equilibrated at 25° C. for 24 hours then the pH was measured. The suspension was then filtered through a glass fibre C filter into a 96 well plate. […] Quantitation was by HPLC with reference to a standard solution of approximately 0.25 mg·ml^−1 in DMSO. Different volumes of the standard, diluted and undiluted sample solutions were injected.
# Analysis was performed on an Agilent HP1100 series system equipped with a diode array detector and using ChemStation software vB.02.01-SR1.
# [3] = Gravimetric vapour sorption (GVS); details: 25° C.
# Method: Gravimetric Vapour Sorption (GVS)
# Sorption isotherms were obtained using a SMS DVS Intrinsic moisture sorption analyser, controlled by DVS Intrinsic Control software v1.0.0.30. The sample temperature was maintained at 25° C. by the instrument controls. The humidity was controlled by mixing streams of dry and wet nitrogen, with a total flow rate of 200 ml/min The relative humidity was measured by a calibrated Rotronic probe (dynamic range of 1.0-100% RH), located near the sample. The weight change, (mass relaxation) of the sample as a function of % RH was constantly monitored by the microbalance (accuracy ±0.005 mg).
# Typically 5-20 mg of sample was placed in a tared mesh stainless steel basket under ambient conditions. The sample was loaded and unloaded at 40% RH and 25° C. (typical room conditions). A moisture sorption isotherm was performed as outlined below (2 scans giving 1 complete cycle). The standard isotherm was performed at 25° C. at 10% RH intervals over a 0-90% RH range. Data analysis was undertaken in Microsoft Excel using DVS Analysis Suite v6.0.0.7.
# The sample was recovered after completion of the isotherm and re-analysed by XRPD.
# Gravimetric vapour sorption analysis of Form 2 crystalline polymorph (a sample obtained using the method in Example 6) was undertaken using the method described in General Methods.
# [4] = Solid state 13C NMR, environmental dependence of ketone:hydrate ratio; details: as prepared 67:33
# Method: The analysis was carried out using a Varian VNMRS instrument operating at 100.56 MHz for ^13C (399.88 MHz for 1H) and 376.24 MHz for ^19F with a 4 mm (rotor o.d.) magic-angle spinning probe. Carbon-13 spectra were recorded from the sample using a crosspolarization magic-angle spinning (CPMAS) technique without and with dipolar dephasing (interrupted decoupling). Appropriate acquisition conditions were established using a set of short trial measurements: recycle 5 s, contact time 5 ms. A sample spin-rate of 10.0 kHz was used along with two-pulse phase-modulated (TPPM) 1H decoupling (at a radiofrequency field approximately equivalent to 75 kHz). The sample was run as-received and at ambient probe temperature (˜30° C. at this spin rate). Spectra are referenced with respect to neat tetramethylsilane (by setting the high-frequency line from adamantane to 38.5 ppm). The ^19F spectrum was obtained by direct excitation following a 3.6 μs 90° pulse, with a 60 s relaxation delay, at spin rate of 14 kHz and with no 1H decoupling. The spectrum is referenced relative to CFCI3.
# The analysis was carried out using a Varian VNMRS instrument operating at 100.56 MHz for ^13C (399.88 MHz for 1H) and a 6 mm (rotor o.d.) magic-angle spinning probe. Carbon-13 spectra were recorded from the sample using a cross-polarization magic-angle spinning (CPMAS) technique. […]
# The ^13C solid state NMR spectrum of a sample of Form 2 crystalline polymorph produced using the method of Example 5 is illustrated in FIG. 5. Based on the integration of the 208 ppm (ketone) and 102 ppm (hydrate) signals, the ketone:hydrate ratio was determined to be 67:33.
# The ^13C solid state NMR spectrum illustrated in FIG. 6 was recorded after the sample had been stored at a relative humidity of <2% for one week. […] The ^13C solid state NMR spectrum shown in FIG. 7 was recorded after the sample had been stored at 75% RH for one week. […] The ^13C solid state NMR spectrum shown in FIG. 8 was recorded at 80° C. and gives a ketone content of 68%.
"solubility at 24 h ([2]; pH 5.8, thermodynamic from solid, suspension in water equilibrated at 25° C. for 24 hours, filtered, HPLC, pH of each suspension printed in same cell) [µg/mL]","pH measured after equilibration of the solubility suspension ([2]; water, 25° C., 24 hours)",Compound,temperature of mass loss(es) on heating [1],"temperature at which degradation begins ([1]; DSC/TGA, nitrogen, small mass loss until this temperature (FIG. 12)) [°C]",reversibility of water uptake ([3]; 0-90% RH range),water uptake ([3]; over the 0-90% RH range) [%],ketone share of ketone/hydrate signal intensity ([4]; after storage at 75% RH for one week (FIG. 7)) [%],ketone share of ketone/hydrate signal intensity ([4]; after storage at relative humidity <2% for one week (FIG. 6)) [%],ketone content ([4]; spectrum recorded at 80° C. (FIG. 8)) [%]
,,"C#CC1CN(C(=O)C(CC(C)C)NC(=O)c2ccc(-c3nc(N4CCN(C)CC4)sc3F)cc2)C2C(=O)COC12.Cl (stereo not shown) [Form 1 crystalline polymorph, N-[1-6-(ethynyl-3-oxo-hexahydro-furo[3,2-b]pyrrole-4-carbonyl)-3-methyl-butyl]-4-[5-fluoro-2-(4-methyl-piperazin-1-yl)thiazol-4-yl]-benzamide monohydrochloride]",below 160 °C,,,,,,
300,5.8,"C#C[C@@H]1CN(C(=O)[C@H](CC(C)C)NC(=O)c2ccc(-c3nc(N4CCN(C)CC4)sc3F)cc2)[C@@H]2C(=O)CO[C@H]12 [Compound I free base, N-[1-6-(ethynyl-3-oxo-hexahydro-furo[3,2-b]pyrrole-4-carbonyl)-3-methyl-butyl]-4-[5-fluoro-2-(4-methyl-piperazin-1-yl)thiazol-4-yl]-benzamide]",below 110 °C,,,,,,
,,"N-[1-6-(ethynyl-3-oxo-hexahydro-furo[3,2-b]pyrrole-4-carbonyl)-3-methyl-butyl]-4-[5-fluoro-2-(4-methyl-piperazin-1-yl)thiazol-4-yl]-benzamide monohydrochloride and N-[1-6-(ethynyl-3-oxo-hexahydro-furo[3,2-b]pyrrole-4-carbonyl)-3-methyl-butyl]-4-[5-fluoro-2-(4-methyl-piperazin-1-yl)thiazol-4-yl]-benzamide hydrate monohydrochloride [Form 2 crystalline polymorph]",,160,reversible,~2.2,67,67,68
